Measured values taken from the NIST ThermoML archive (doi:10.1016/j.jct.2019.05.017).
± gives the expanded uncertainty stated by the source.

Key:
[1] = 101.3 kPa, Liquid, Vibrating tube method
[2] = wn = mass fraction of the nth substance listed; conditions: 101.3 kPa, Liquid, Vibrating tube method

| SMILES | mass density ([1]; 303.15 K) [kg/m3] | mass density ([1]; 313.15 K) [kg/m3] | mass density ([1]; 293.15 K) [kg/m3] | mass density ([1]; 298.15 K) [kg/m3] | mass density ([1]; 308.15 K) [kg/m3] | mass density ([1]; 318.15 K) [kg/m3] | mass density ([1]; 323.15 K) [kg/m3] | mass density ([1]; 328.15 K) [kg/m3] | mass density ([1]; 333.15 K) [kg/m3] | other results |
| --- | --- | --- | --- | --- | --- | --- | --- | --- | --- | --- |
| NCCO [2-aminoethan-1-ol] | 1008.8 ± 2 | 1000.9 ± 2 |  |  |  |  |  |  |  |  |
| CCOCCO [2-ethoxyethan-1-ol] | 920.7 ± 2 | 911.5 ± 2 | 929.7 ± 2 | 925.2 ± 2 | 916.1 ± 2 | 906.8 ± 2 | 902.1 ± 2 | 897.4 ± 2 | 892.6 ± 2 |  |
| CCOCCO [2-ethoxyethan-1-ol] + NCCO |  |  |  |  |  |  |  |  |  | mass density ([2]; 293.15 K, w2 = 0.318): 960.2 ± 2 kg/m3; mass density ([2]; 298.15 K, w2 = 0.318): 956 ± 2 kg/m3; mass density ([2]; 303.15 K, w2 = 0.318): 951.7 ± 2 kg/m3; mass density ([2]; 308.15 K, w2 = 0.318): 947.4 ± 2 kg/m3; mass density ([2]; 313.15 K, w2 = 0.318): 943 ± 2 kg/m3; mass density ([2]; 318.15 K, w2 = 0.318): 938.7 ± 2 kg/m3; mass density ([2]; 323.15 K, w2 = 0.318): 934.3 ± 2 kg/m3; mass density ([2]; 328.15 K, w2 = 0.318): 929.8 ± 2 kg/m3; mass density ([2]; 333.15 K, w2 = 0.318): 925.4 ± 2 kg/m3 |
| COCCO [2-methoxyethan-1-ol] | 955.5 ± 2 | 946.2 ± 2 | 964.7 ± 2 | 960.1 ± 2 | 950.9 ± 2 | 941.5 ± 2 | 936.7 ± 2 | 932 ± 2 | 927.2 ± 2 | mass density ([1]; 283.15 K): 974.7 ± 2 kg/m3; mass density ([1]; 288.15 K): 969.9 ± 2 kg/m3 |
| COCCO [2-methoxyethan-1-ol] + NCCO |  |  |  |  |  |  |  |  |  | mass density ([2]; 293.15 K, w2 = 0.31): 985.5 ± 2 kg/m3; mass density ([2]; 298.15 K, w2 = 0.31): 981.1 ± 2 kg/m3; mass density ([2]; 303.15 K, w2 = 0.31): 976.8 ± 2 kg/m3; mass density ([2]; 308.15 K, w2 = 0.31): 972.5 ± 2 kg/m3; mass density ([2]; 313.15 K, w2 = 0.31): 968.1 ± 2 kg/m3; mass density ([2]; 318.15 K, w2 = 0.31): 963.7 ± 2 kg/m3; mass density ([2]; 323.15 K, w2 = 0.31): 959.2 ± 2 kg/m3; mass density ([2]; 328.15 K, w2 = 0.31): 954.8 ± 2 kg/m3; mass density ([2]; 333.15 K, w2 = 0.31): 950.3 ± 2 kg/m3 |
